Test results reported in PubChem BioAssay (NCI).
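Briefly, cells in 96-well plates were exposed to five compound concentrations for 48 h, and endpoints were estimated by linear interpolation. TGI: concentration producing complete growth inhibition.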

Columns and labels:
Assay in all cases: inhibition of tumour cell growth, NCI panel, 48 h
[1] = system: OVCAR-8 ovarian
[2] = system: NCI-H460 lung
[3] = system: UACC-62 melanoma
[4] = system: UO-31 renal
[5] = system: CCRF-CEM leukemia
[6] = system: HL-60(TB) leukemia
[7] = system: MOLT-4 leukemia
[8] = system: SNB-75 CNS
[9] = system: NCI-H522 lung
[10] = system: RXF 393 renal

Structure (SMILES)	TGI [1] [µM]	TGI [2] [µM]	TGI [3] [µM]	TGI [4] [µM]	TGI [5] [µM]	TGI [6] [µM]	TGI [7] [µM]	TGI [8] [µM]	TGI [9] [µM]	TGI [10] [µM]
CCCCCCCC/C=C/CCCCCCCC1CC(O)C(=O)O1 (stereo not given)	> 100	> 100	> 100	> 100	> 100	88.3	> 100	> 100	–	–
Cn1c(=O)c2nc(N3CCCCC3)cnc2n(C)c1=O	> 100	> 100	> 100	> 100	> 100	> 100	> 100	> 100	> 100	–
CC(C)(C)NC1C2CCC(C)(C1O)C2(C)C (stereo not given)	> 100	> 100	12.5	> 100	–	–	> 100	26.2	–	> 100
CC(C)(O)[C@H](CCO)O[Si](c1ccccc1)(c1ccccc1)C(C)(C)C	23.8	26.7	24.1	23	32.2	20.1	20	22.9	20.1	–
COC(=O)NN1C(=O)C(=P(c2ccccc2)(c2ccccc2)c2ccccc2)C(C(=O)OC)=C1C	> 100	> 100	> 100	> 100	> 100	> 100	> 100	> 100	> 100	–
CCNCCNC(=O)c1ccc(Br)cc1	> 100	> 100	> 100	> 100	> 100	> 100	> 100	> 100	–	> 100
O=c1[nH]c(=O)n(C2CC(O)C(CO)O2)cc1C#Cc1cc(F)cc(F)c1 (stereo not given)	> 100	> 100	> 100	> 100	> 100	–	> 100	> 100	> 100	–
CC[C@]12C=CCN3CCC4(c5cc([C@@]6(C(=O)OC)CC7CN(CCc8c6[nH]c6ccccc86)C[C@@H]6CCC[C@H]76)c(OC)cc5N(C)C4[C@](O)(C(=O)OC)C1OC(C)=O)C32 (stereo not given in full)	> 4.81	> 4.71	> 10	> 10	> 10	0.289	6.02	–	0.113	0.554
Cc1cc2[nH]c3c(C#N)c(-c4ccccc4)c(CN4CCOCC4)c(=O)n3c2cc1C	> 100	> 100	–	> 100	> 100	–	–	> 100	> 100	> 100
S=C1SC(c2ccc(Cl)cc2)(c2ccc(Cl)cc2)c2ccccc21	> 100	> 100	> 100	> 100	> 100	–	> 100	> 100	> 100	> 100
C/C(=N/N)c1ccc2[nH]c3c(C)cc([N+](=O)[O-])c(C)c3c2c1	26.5	72.4	–	22.4	30.1	> 100	19.8	> 100	36.7	–
O=C(c1ccccc1)c1c(CNCc2ccccc2)n(C(=O)c2ccccc2)c2ccccc12	> 100	> 100	> 100	56.1	> 100	98.7	65.5	27.5	81.8	–
CCn1cnc2c(NC(C)=O)ncnc21	> 100	> 100	> 100	> 100	> 100	–	> 100	> 100	> 100	> 100
CCCCCC(/C=N/N)C(O)(C(F)(F)F)C(F)(F)F (stereo not given)	> 10	8.03	> 10	–	> 10	> 10	> 10	9.63	> 10	> 10
CC(=O)OC1COC(Nn2c(=O)[nH]c3ccccc3c2=O)C(OC(C)=O)C1OC(C)=O (stereo not given)	> 100	> 100	> 100	> 100	> 100	> 100	> 100	> 100	–	–
c1ccc2c(c1)C(=Nc1ccc(N=C3c4ccccc4-c4ccccc43)cc1)c1ccccc1-2	> 100	> 100	> 100	> 100	> 100	> 100	> 100	–	> 100	> 100
O=C1C[C@H]2[C@H](c3ccc(Br)cc3)[C@H]3C(=O)c4ccccc4NC(=O)[C@@H]3[C@@]2(O)c2ccccc2N1	> 100	> 100	61.5	–	53.3	15.3	25	41.1	69.3	26
[N-]=[N+]=NC1=C(c2ccccc2)C(=O)c2cccc3cccc1c23	–	28.7	34.9	> 100	> 100	> 100	21.1	76.5	–	60.6
CC(NC(=O)C(N)CC(=O)O)NC(=O)N1CCCC1 (stereo not given)	> 100	> 100	> 100	> 100	> 100	–	> 100	> 100	> 100	> 100
CCCCCCCCCCCCP(=O)(O)OCC(N)C(=O)O (stereo not given)	> 100	89.6	–	26	–	36.1	61.7	40.3	> 100	> 100
COc1c(O)cc(C(=O)O[C@@H]2Cc3c(O)cc(O)cc3O[C@@H]2c2cc(O)c(O)c(O)c2)cc1O	54.1	66.7	78.4	50.5	–	63	56.8	–	54.6	37.2
COC1(C)C=NCC(C)(C)NC(=O)C(C)(OC)C=NCC(C)(C)NC1=O (stereo not given)	> 10	–	> 10	–	> 10	> 10	> 10	> 10	> 10	> 10
CC1(C)OC(=S)N(c2ccccc2)C12C=Cc1cc3ccccc3cc1O2 (stereo not given)	> 100	> 100	> 100	> 100	> 100	> 100	> 100	> 100	–	> 100
